According to PMC8472790, “Dual Emissive Ir(III) Complexes for Photodynamic Therapy and Bioimaging” (Pharmaceutics, 2021):
Like-named read-outs stand apart in the source and are kept apart here.

Legend:
[1] = system: A549 lung carcinoma cells; assay: MTT-reduction cell viability assay, dark and after LED irradiation; assay type: cell-based, Human; details: for PI (Phototoxic index), 405 nm: IC50 dark / IC50 at 405 nm; for PI (Phototoxic index), 470 nm: IC50 dark / IC50 at 470 nm
Experimental: Human lung carcinoma A549 cell line (from ATCC, Manassas, VA, USA) was cultured in high glucose Dubecco’s Modified Eagle’s Medium (DMEM) supplemented with 5% fetal bovine serum (FBS) as well as L-glutamine and penicillin/streptomycin at 37 °C in a humidified atmosphere of 95% air and 5% CO2.
Cell metabolic activity was analyzed by an MTT-reduction assay to assess the A549 cell sensitivity to the complexes. Thus, 10^5 cells(A549)/mL were seeded in flat-bottom 96-well plates (100 µL/well) in complete medium and allowed to attach for 24 h. A stock solution of the complexes was prepared in DMSO 0.1 M. Subsequent dilutions of the different stock solutions from the complexes using DMEM were prepared. 100 µL/well were added to the cells, in concentrations ranging from 0.2 to 50 µM. each concentration was performed by quadruplicate. After 5 h of incubation with the complexes, duplicates of each concentration were irradiated with an LED lamp upon 405 and 470 nm with a light dose of 6.5 and 15.1 J/m^2, respectively, for 10 min. Before irradiation, culture medium was replaced with fresh medium in order to avoid interference with non-internalized complexes. Cells were cultured for a further 19 h. 10 µL of MTT (5 mg ml^−^1 in PBS) were added to each well and then further 2 h incubation was allowed at 37 °C. Finally, after removing the culture medium, DMSO (100 µL/well) was added to dissolve the formazan crystals. Multiskan EX 96-well multiscanner autoreader (Thermo Fisher Scientific, Waltham, MA, USA) was used to determine the optical density at 550 nm and IC50 was calculated. Each experiment was repeated at least three independent analyses.

[2] = Distribution coefficient n-octanol/water, shake-flask method; assay type: physicochemical; details: pH = 7.4, n-octanol/phosphate buffered saline, 298 K
Experimental: The n-octanol-water coefficient of complexes 1–4 and L1 and L2 were determined using a shake-flask method. A mixture of buffered-saline distilled water (100 mL, phosphate buffer [PO4^3−] = 10 mM, [NaCl] = 0.15 M, pH 7.4) and n-octanol (100 mL) was shaken for 72 h to allow saturation of both phases. Approximately 0.5 mg of the complexes or ligands werw dissolved in 5 mL of the aqueous phase and 5 mL of the organic phase were added, mixing for 10 min. The resulting emulsion was centrifuged to separate the phases. The concentration of the compounds in each phase was determined using UV absorbance spectroscopy at 298 K. logP7.4 was defined as log{[compound(organic phase)]/[compound(aqueous phase)]}.

A549 cells [3] = assay: Cell morphology by phase contrast (inverted) microscopy; assay type: cell-based, Human; details: A549, 10 to 20 µM, 20 h
Experimental: Alterations in cell morphology and behavior as a consequence of the exposition to ligands and complexes were analyzed using an inverted microscope (Figure 5). […] Oppositely, complexes 1–4 were able to modify cell aspect. All of them triggered cytoplasmic vesicle formation, which was more remarkable for compounds 3 and 4, containing the bzq orthometallated ligand. Moreover, even though cell division still took place in the presence of all of them, it became patently clear that they have cytotoxic properties, being more evident for complexes 1 and 2.
Figure 5 Phase contrast microscopy images of A549 cells treated with L1, L2 and 1–4 at concentrations between 10 and 20 µM for 20 h. Black arrows point to apoptotic cells. Little black triangles show examples of cells containing cytoplasmic vesicles.

A549 cells [4] = assay: Cell cycle analysis, propidium iodide flow cytometry; assay type: cell-based, Human; details: for Cell distribution G0-G1 / Cell distribution G2-M / Cell distribution S: 5 h + 19 h
Experimental: 4 × 105. […] Thereupon, cell culture was changed, and half of the experimental points were irradiated at 470 nm. After 19 h in culture, cells were trypsinized, washed twice with PBS, fixed with cold 70% ethanol (v/v) by vortexing and stored at −20 °C for at least 24 h. After that, cells were wash with cold PBS and stained with 500 μL of a solution of propidium iodide (PI) and RNase (Immunostep, Salamanca, Spain) for 20 min at rt in the dark. Finally, a total of 10,000 cells were acquired on a FACSCalibur^TM flow cytometer and data were analyzed using the aforementioned softwares.

A549 cells [5] = assay: Cytotoxicity assay by flow cytometry, Annexin V-DY634 / 7-AAD double staining; assay type: cell-based, Human; details: A549, dark and irradiation at 470 nm
Experimental: Necrotic and apoptotic cell death was determined by measuring cell membrane permeabilization and phosphatidylserine exposure on cell surface in A549 cells, respectively. 10^5 cells/well were seeded in flat-bottom, 12-well plates (1 mL/well) in complete medium and left 12 h to attach to the plates. […] After 19 h, cells were trypsinized and thereafter resuspended in 50 μL of a mixture of DY634-conjugated Annexin V, Annexin-binding buffer (ABB; 140 mM NaCl, 2.5 mM CaCl2, 10 mM HEPES/NaOH pH 7.4) and 7-amino-actinomycin D (7-AAD). After incubation for further 15 min at rt in dark, cells were diluted to 300 μL with ABB. A total of 10,000 cells were acquired on a FACSCalibur^TM flow cytometer (BD Biosciences, San Jose, CA, USA) and cell death analysis was performed using Flowjo 7.6.1 (Becton Dickinson (BD), Franklin Lakes, NJ, USA), CellQuest Pro (BD Biosciences) and GraphPad Prism 8 (GraphPad Software, San Diego, CA, USA) softwares.

A549 cells [6] = assay: ROS production measurement with dihydroethidium (DHE) by flow cytometry; assay type: cell-based, Human; details: A549, IC50 to ¼ IC50, dark and irradiation at 470 nm for 10 min
Experimental: Cells were incubated with the complex for 5 h and subsequently half of the experimental points were irradiated at 470 nm after replacing culture medium. Upon 19 h, cells were trypsinized, resuspended in 100 μL of a mixture of PBS and 2 μM of the dihydroethidium (DHE) probe, incubated at 37 °C in the dark for 15 min and diluted to 300 μL with PBS. Lastly, a total of 10,000 events were acquired on a FACSCalibur^TM flow cytometer and data were analyzed using the aforementioned softwares

[7] = 5 h incubation, irradiation 10 min at 405 nm (6.5 J/m^2), further 19 h, read-out: IC50(λexc 405 nm)
[8] = 5 h incubation, irradiation 10 min at 470 nm (15.1 J/m^2), further 19 h, read-out: IC50(λexc 470 nm)
[9] = 24 h incubation, no irradiation, read-out: IC50 (DARK)
[10] = Homo sapiens, light or radiation study, 24 h incubation, no irradiation, read-out: IC50 (DARK)
[11] = A549, irradiation at 470 nm, 0.0975 μM (25% IC50)

**Q.** Which IC50 [1, 7] does the source give for `[Cl-].c1ccc(-c2cccc[c]2[Ir+][c]2ccccc2-c2ccccn2)nc1.c1ccc(N(c2ccccn2)c2c3ccccc3cc3ccccc23)nc1` [Complex 1] here?
**A.** 1.16 ± 0.06 µM

**Q.** And the IC50 [1, 8]?
**A.** 0.18 ± 0.05 µM

**Q.** And the IC50 [1, 9]?
**A.** 13.6 ± 0.08 µM

**Q.** What about the “PI (Phototoxic index), 405 nm” value [1] of the same compound?
**A.** 11.7

**Q.** And the “PI (Phototoxic index), 470 nm” value [1]?
**A.** 75.5

**Q.** And the “logP(Oct/W)” value [2]?
**A.** 0.75

**Q.** Which IC50 [1, 7] does the source give for `[Cl-].c1ccc(N(c2ccccn2)c2c3ccccc3cc3ccccc23)nc1.c1cnc2c(c1)ccc1ccc[c]([Ir+][c]3cccc4ccc5cccnc5c34)c12` [Complex 3] here?
**A.** 1.35 ± 0.08 µM

**Q.** What about the IC50 [1, 8] of the same compound?
**A.** 0.4 ± 0.08 µM

**Q.** What about the IC50 [1, 9] of the same compound?
**A.** 18.9 ± 0.12 µM

**Q.** And the “PI (Phototoxic index), 405 nm” value [1]?
**A.** 14.0

**Q.** And the “PI (Phototoxic index), 470 nm” value [1]?
**A.** 47.2

**Q.** And the “logP(Oct/W)” value [2]?
**A.** 1.73

**Q.** Which results are given for `c1ccc(N(c2ccccn2)c2c3ccccc3cc3ccccc23)nc1` [Complex L1]?
**A.** IC50 [1, 10]: > 50 µM; Alterations in cell morphology (A549 cells [3]): apoptotic or necrotic cells were not detected; logP [2]: 1.2

**Q.** Which results are given for `c1ccc(N(c2ccccn2)c2c3ccccc3nc3ccccc23)nc1` [Complex L2]?
**A.** IC50 [1, 10]: > 50 µM; Alterations in cell morphology (A549 cells [3]): apoptotic or necrotic cells were not detected; logP [2]: 0.59

**Q.** For [Ir(bzq)2(dpa-acr)]^+ [Complex 4], which “Cell distribution G0-G1” value (A549 cells [4]; A549, dark, 10.9 μM (25% IC50)) is on record?
**A.** 72.4%

**Q.** And the “Cell distribution G2-M” value (A549 cells [4]; A549, dark, 10.9 μM (25% IC50))?
**A.** 13.5%

**Q.** What about the “Cell distribution S” value (A549 cells [4]; A549, dark, 10.9 μM (25% IC50)) of the same compound?
**A.** 14.1%

**Q.** What about the “Cell distribution G0-G1” value (A549 cells [4]; [11]) of the same compound?
**A.** 73.7%

**Q.** And the “Cell distribution G2-M” value (A549 cells [4]; [11])?
**A.** 14.0%

**Q.** What about the “Cell distribution S” value (A549 cells [4]; [11]) of the same compound?
**A.** 12.3%

**Q.** And the Cell cycle arrest (A549 cells [4]; A549, ¼ IC50, dark and irradiation at 470 nm)?
**A.** not capable of stopping the cell cycle at any of its phases

**Q.** What about the IC50 [1, 7] of the same compound?
**A.** > 5 µM

**Q.** And the IC50 [1, 8]?
**A.** 0.39 ± 0.09 µM

**Q.** And the IC50 [1, 9]?
**A.** 43.38 ± 0.14 µM

**Q.** And the Cell death pathway (A549 cells [5])?
**A.** triggers the apoptotic pathway

**Q.** What about the “ROS generation (DHE)” value (A549 cells [6]) of the same compound?
**A.** concentration-dependent ROS generation

**Q.** What about the “logP(Oct/W)” value [2] of the same compound?
**A.** 1.24
